± gives the uncertainty stated by the source.
Experiment: xn = mol fraction of the nth substance listed

CCCCOCCO + NCCO
viscosity [mPa·s]
Conditions	293.15 K	298.15 K	303.15 K	308.15 K	313.15 K	318.15 K	323.15 K
101 kPa, x2 = 0.177	4.615 ± 0.24	3.961 ± 0.21	3.431 ± 0.18	2.994 ± 0.16	2.629 ± 0.14	2.325 ± 0.12	2.07 ± 0.11
101 kPa, x2 = 0.453	8.081 ± 0.41	6.718 ± 0.34	5.65 ± 0.29	4.799 ± 0.25	4.115 ± 0.21	3.559 ± 0.18	3.101 ± 0.16
101 kPa, x2 = 0.659	12.25 ± 0.63	9.951 ± 0.51	8.19 ± 0.42	6.823 ± 0.35	5.747 ± 0.29	4.888 ± 0.25	4.197 ± 0.21
101 kPa, x2 = 0.819	16.81 ± 0.85	13.39 ± 0.68	10.84 ± 0.55	8.898 ± 0.45	7.395 ± 0.38	6.212 ± 0.32	5.271 ± 0.27
101 kPa, x2 = 0.946	21.65 ± 1.1	17.02 ± 0.86	13.6 ± 0.69	11.03 ± 0.56	9.061 ± 0.46	7.538 ± 0.38	6.342 ± 0.32
101.3 kPa, x2 = 0.457	8.08 ± 0.18	6.72 ± 0.15	5.65 ± 0.12	4.8 ± 0.1	4.11 ± 0.09	3.56 ± 0.08	3.1 ± 0.07
101.3 kPa, x2 = 0.664	12.25 ± 0.27	9.95 ± 0.22	8.19 ± 0.18	6.82 ± 0.15	5.75 ± 0.13	4.89 ± 0.11	4.2 ± 0.09

CCCCNCCO + O
100 kPa, x2 = 0.62
Conditions	viscosity [mPa·s]
293.15 K	29 ± 0.5
303.15 K	16.7 ± 0.3
313.15 K	10.3 ± 0.2
323.15 K	6.73 ± 0.11

CCOS(=O)(=O)[O-].CC[N+](CC)=C(N(C)C)N(C)C + O
viscosity [mPa·s], 100 kPa
Conditions	x1 = 0.0999	x1 = 0.2003	x1 = 0.3005	x1 = 0.4004	x1 = 0.4989	x1 = 0.6001	x1 = 0.7	x1 = 0.801	x1 = 0.8982
293.15 K	12.38 ± 0.99	25.31 ± 2	39.06 ± 3.1	53.18 ± 4.3	68.18 ± 5.5	85.88 ± 7	107 ± 8.9	132.6 ± 11	160.6 ± 14
298.15 K	10.01 ± 0.8	19.81 ± 1.6	29.97 ± 2.4	40.42 ± 3.2	51.48 ± 4.1	64.33 ± 5.2	79.13 ± 6.4	97.08 ± 8	116.9 ± 9.9
303.15 K	8.224 ± 0.66	15.93 ± 1.3	23.79 ± 1.9	31.86 ± 2.6	40.31 ± 3.2	49.98 ± 4	60.7 ± 4.9	73.9 ± 6	88.11 ± 7.2
308.15 K	6.765 ± 0.54	12.88 ± 1	19.09 ± 1.5	25.43 ± 2	32.02 ± 2.6	39.28 ± 3.2	47.26 ± 3.8	57.08 ± 4.6	67.41 ± 5.4
313.15 K	5.628 ± 0.45	10.63 ± 0.85	15.72 ± 1.3	20.82 ± 1.7	26.05 ± 2.1	31.62 ± 2.5	37.7 ± 3	45.18 ± 3.6	53.08 ± 4.2
318.15 K	4.66 ± 0.37	8.802 ± 0.71	13.04 ± 1.1	17.16 ± 1.4	21.39 ± 1.7	25.68 ± 2.1	30.35 ± 2.4	36.2 ± 2.9	42.47 ± 3.4
323.15 K	3.828 ± 0.31	7.374 ± 0.59	10.99 ± 0.88	14.3 ± 1.1	17.61 ± 1.4	21.15 ± 1.7	24.97 ± 2	29.66 ± 2.4	34.73 ± 2.8

CC[NH+](C)CC.[Br-] + O
viscosity [mPa·s], 100 kPa
Conditions	298.15 K	303.15 K	308.15 K	313.15 K	318.15 K	323.15 K
x1 = 0.016	1.149 ± 0.069	1.026 ± 0.062	0.925 ± 0.056	0.841 ± 0.051	0.771 ± 0.047	0.712 ± 0.043
x1 = 0.0229	1.243 ± 0.075	1.107 ± 0.067	0.996 ± 0.06	0.903 ± 0.055	0.825 ± 0.05	0.759 ± 0.046
x1 = 0.0355	1.458 ± 0.088	1.295 ± 0.078	1.162 ± 0.07	1.051 ± 0.064	0.955 ± 0.058	0.873 ± 0.053
x1 = 0.0793	2.422 ± 0.15	2.124 ± 0.13	1.882 ± 0.11	1.681 ± 0.1	1.513 ± 0.092	1.368 ± 0.083
x1 = 0.0986	3.011 ± 0.18	2.633 ± 0.16	2.318 ± 0.14	2.061 ± 0.12	1.843 ± 0.11	1.658 ± 0.1
x1 = 0.1267	4.05 ± 0.24	3.504 ± 0.21	3.07 ± 0.19	2.707 ± 0.16	2.389 ± 0.14	2.142 ± 0.13
x1 = 0.1508	5.154 ± 0.31	4.438 ± 0.27	3.862 ± 0.23	3.379 ± 0.2	2.988 ± 0.18	2.658 ± 0.16
x1 = 0.1806	6.655 ± 0.4	5.646 ± 0.34	4.861 ± 0.3	4.22 ± 0.26	3.695 ± 0.22	3.267 ± 0.2
x1 = 0.2148	9.109 ± 0.55	7.787 ± 0.47	6.643 ± 0.4	5.74 ± 0.35	5.002 ± 0.3	4.39 ± 0.27
x1 = 0.2422	11.37 ± 0.69	9.636 ± 0.59	8.251 ± 0.5	7.129 ± 0.43	6.196 ± 0.38	5.432 ± 0.33
x1 = 0.2866	15.38 ± 0.94	12.8 ± 0.78	10.79 ± 0.66	9.194 ± 0.56	7.919 ± 0.48	6.897 ± 0.42
x1 = 0.3332	21.46 ± 1.3	17.54 ± 1.1	14.61 ± 0.89	12.29 ± 0.75	10.49 ± 0.64	9.032 ± 0.55
x1 = 0.4014	33.72 ± 2.1	26.93 ± 1.7	21.98 ± 1.3	18.17 ± 1.1	15.2 ± 0.93	12.89 ± 0.79

From the CheMixHub viscosity set
